According to article PMC11045757, “Group 3 medulloblastoma transcriptional networks collapse under domain specific EP300/CBP inhibition” (Nature Communications, 2024):
Several values for one entry are separate records, joined by “and”; a condition that tells them apart may be missing. Identical values can stand only once. Like-named read-outs stand apart in the source and are kept apart here.

Experiments:
[1] = target: GFP-tagged CBP bromodomain (Homo sapiens, UniProt Q92793); assay: Microscale thermophoresis (MST); type: binding; conditions: for Response (Dose Response Curve): MST raw response; for Bound (Fit Results): fitted MST response of bound state; for Unbound (Fit Results): fitted MST response of unbound state
Chain of GFP-tagged CBP bromodomain (Q92793 1085-1192 limits assumed): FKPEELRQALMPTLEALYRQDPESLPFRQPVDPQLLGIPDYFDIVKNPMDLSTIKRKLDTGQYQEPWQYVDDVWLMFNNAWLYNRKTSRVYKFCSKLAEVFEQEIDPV
Description: MST experiments were performed in a Monolith NT.115 Pico instrument (NanoTemper Technologies) following published procedures. […] MST traces were recorded using standard parameters: 5 s MST power off, 30 s MST power on and 5 s MST power off. Measurements were taken at -1-0 s (cold region) and 10 s (hot region) and data were analyzed using the NTAnalysis software.

CBP bromodomain [2] = target: T1, CBP bromodomain (Homo sapiens, UniProt Q92793); assay: Differential scanning fluorimetry (DSF) thermal shift; type: binding; conditions: for ∆Tm (°C) CBP / ΔTm (°C) CBP: DSF; for ∆Tm (°C) CBP: 5 μM protein, 100 μM compound, three independent experiments, average ± SD; for DSF ΔTm (°C): Figure 3C, DSF (values equal CBP column)
T1 construct: CBP (residues 1081-1197); 6xHis (cleaved yes); host or cells: E. coli BL21 (DE3) RIL
T1 sequence (Q92793 1081-1197): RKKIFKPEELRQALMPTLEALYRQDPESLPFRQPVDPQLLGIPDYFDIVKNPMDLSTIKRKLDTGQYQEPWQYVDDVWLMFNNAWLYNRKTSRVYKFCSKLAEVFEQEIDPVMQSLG
Description: (§1) After 18 h growth, the culture was harvested by centrifugation at 6000 × g for 25 min and stored at -80 °C. Harvested cell pellets were re-suspended in 50 mM Na/K phosphate buffer (pH 7.4) containing 100 mM NaCl, 40 mM imidazole, 0.01% w/v lysozyme and 0.01% v/v Triton X-100 at 4 °C for 1 h, subjected to sonication and the lysate was clarified by centrifugation (30,000 × g for 45 min at 4 °C). Proteins were purified by FPLC at 4 °C using columns and chromatography materials from GE Healthcare. […] Proteins were purified to homogeneity by size exclusion chromatography using Superdex 75 equilibrated with elution buffer (50 mM HEPES pH 7.5, 100 mM NaCl, 2 mM DTT). […] Pool fractions were combined, concentrated to 10–12 mg/ml, and aliquots were flash-frozen in liquid N2 and stored at −80 °C.
(§2) DSF experiments were performed with an Applied Biosystem StepOnePlus real-time PCR system (Thermo Fisher Scientific) using 96-well format plates, assayed in quadruplicate. For thermal shift determination, 5 μM protein was mixed with 100 μM compound in 50 mM HEPES, pH 7.5, 150 mM NaCl, 2 mM DTT, 2% DMSO, 5X SYPRO Orange (Thermo Fisher Scientific) in 20 μL reaction volumes.

CBP bromodomain [3] = assay: as above; type: binding; conditions: ΔTm (CBP)/ΔTm(BRD4)
Description: as §1, §2

EP300 bromodomain = target: T2, EP300 bromodomain (Homo sapiens, UniProt Q09472); assay: as above; type: binding; conditions: for ∆Tm (°C) EP300 / ΔTm (°C) EP300: DSF; for ∆Tm (°C) EP300: 5 μM protein, 100 μM compound, three independent experiments, average ± SD; for ΔTm (°C) EP300: Figure 3B
T2 construct: 6xHis (cleaved yes); host or cells: E. coli BL21 (DE3) RIL
T2 sequence (Q09472 1048-1161): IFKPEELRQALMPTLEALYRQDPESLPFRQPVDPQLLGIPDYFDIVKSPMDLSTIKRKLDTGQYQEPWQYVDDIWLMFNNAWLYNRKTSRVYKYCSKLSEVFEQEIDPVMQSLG
Description: (§3) At OD600 of 0.6, the culture was cooled down to 18 °C and induced with 0.1 mM IPTG. After 18 h growth, the culture was harvested by centrifugation at 6000 × g for 25 min and stored at -80 °C. Harvested cell pellets were re-suspended in 50 mM Na/K phosphate buffer (pH 7.4) containing 100 mM NaCl, 40 mM imidazole, 0.01% w/v lysozyme and 0.01% v/v Triton X-100 at 4 °C for 1 h, subjected to sonication and the lysate was clarified by centrifugation (30,000 × g for 45 min at 4 °C). Proteins were purified by FPLC at 4 °C using columns and chromatography materials from GE Healthcare. […] Proteins were purified to homogeneity by size exclusion chromatography using Superdex 75 equilibrated with elution buffer (50 mM HEPES pH 7.5, 100 mM NaCl, 2 mM DTT). All BRDs eluted as monomeric protein and were of crystallization grade quality (>95% purity as judged by SDS-PAGE). Pool fractions were combined, concentrated to 10–12 mg/ml, and aliquots were flash-frozen in liquid N2 and stored at −80 °C.
as §2, with “volumes. Reaction mixtures were heated from 25 to 95 °C at 1 °C/min with fluorescence readings every 0.5 °C at 610 nm. The observed thermal shift (ΔTm) was recorded as the difference between the Tm of sample and DMSO reference wells.” for “volumes.”

BRD4-BD1 (BRD4-1) = target: T3, BRD4-BD1 (BRD4-1) (Homo sapiens, UniProt O60885); assay: as above; type: binding; conditions: for ∆Tm (°C) BRD4-1 / ΔTm (°C) BRD4-BD1: DSF; for ∆Tm (°C) BRD4-1: 5 μM protein, 100 μM compound, three independent experiments, average ± SD; for ΔTm (°C) BRD4-BD1: Figure 3A
T3 construct: BRD4-BD1 (residues 44-168); 6xHis (cleaved yes); host or cells: E. coli BL21 (DE3) RIL
Description: as §3
as §2, with “volumes. Reaction mixtures were heated from 25 to 95 °C at 1 °C/min with fluorescence readings every 0.5 °C at 610 nm. The observed thermal shift (ΔTm) was recorded as the difference between the Tm of sample and DMSO reference wells.” for “volumes.”

[4] = system: HDMB03 (HDMBO3) group 3 medulloblastoma cells; assay: CellTiter-Glo dose-response growth assay; type: cell-based; conditions: Homo sapiens, HD-MB03; HDMBO3 G3MB cell growth; read-out: IC50 (nM) HDMBO3
Description: CellTiter-Glo assay was performed as per the manufacturer’s instructions, at the noted timepoint after compound treatment or plating. For Kelly, TE617T, RhJT, NCIH2122, NCIH650 and 143B, 500 cells were plated in normal growth media per well in a 384-well plate (Corning). HDMB03 and MB002 cells were plated in growth media at 500 cells/well in a 384-well plate. […] Cells were incubated for the noted timepoints prior to performing CellTiter-Glo assay as per the manufacturer’s instructions, and reading plates on an Envision 2104 microplate reader.

[5] = three independent MST experiments, average ± SD, read-out: Kd (nM) CBP
[6] = Dose 1.52588e-10, single replicate run
[7] = Dose 3.05176e-10, single replicate run
[8] = Dose 6.10352e-10, single replicate run
[9] = Dose 1.2207e-9, single replicate run
[10] = Dose 2.44141e-9, single replicate run
[11] = Dose 4.88281e-9, single replicate run
[12] = Dose 9.76563e-9, single replicate run
[13] = Dose 1.95313e-8, single replicate run
[14] = Dose 3.90625e-8, single replicate run
[15] = Dose 7.8125e-8, single replicate run
[16] = Dose 1.5625e-7, single replicate run
[17] = Dose 3.125e-7, single replicate run
[18] = Dose 6.25e-7, single replicate run
[19] = Dose 1.25e-6, single replicate run
[20] = Dose 2.5e-6, single replicate run
[21] = Dose 5e-6, single replicate run
[22] = MST, single replicate run, target clGFP-CBPBRD, TargetConcentration 5e-8, MST-Power Medium, unit inferred, read-out: Kd (Fit Results, Fit Model: Kd)
[23] = single replicate run, target clGFP-CBPBRD 5e-8

SMILES | Kd [1, 5] | ∆Tm (°C) CBP (CBP bromodomain [2]) [°C] | ΔTm (°C) CBP (CBP bromodomain [2]; Figure 3A, CBP bromodomain) [°C] | ΔTm (°C) CBP (CBP bromodomain [2]; Figure 3B, CBP) [°C] | DSF ΔTm (°C) (CBP bromodomain [2]) | Ratio CBP/BRD4 of ∆Tm (CBP bromodomain [3]) | ∆Tm (°C) EP300 (EP300 bromodomain) [°C] | ΔTm (°C) EP300 (EP300 bromodomain) [°C] | ∆Tm (°C) BRD4-1 (BRD4-BD1 (BRD4-1)) [°C] | ΔTm (°C) BRD4-BD1 (BRD4-BD1 (BRD4-1); BRD4-BD1) [°C] | IC50 [4] [nM] | Response (Dose Response Curve) [1, 6] | Response (Dose Response Curve) [1, 7] | Response (Dose Response Curve) [1, 8] | Response (Dose Response Curve) [1, 9] | Response (Dose Response Curve) [1, 10] | Response (Dose Response Curve) [1, 11] | Response (Dose Response Curve) [1, 12] | Response (Dose Response Curve) [1, 13] | Response (Dose Response Curve) [1, 14] | also measured
COC1CCC(n2c(C3CCCC(=O)N3c3ccc4c(c3)OCCO4)nc3cc(-c4c(C)noc4C)ccc32)CC1 (stereo not shown) [Compound 7] | 17 nM and 16.9 nM | 15.5 ± 0.14 | 15.5 | 15.5 | 15.5 | 2.2 | 13.5 ± 0.89 | 13.5 | 6.9 ± 0.23 | 6.9 | 452 ± 217 | – | – | – | – | – | – | – | – | – | Kd ([1]; MO.Affinity Analysis export, single runs, target clGFP-CBPBRD 5e-8, unit inferred, read-out: Kd (fit result of individual MST run)): 15.5 nM and 27.7 nM and 7.4 nM
COc1ccc(CCc2nc3cc(-c4c(C)noc4C)ccc3n2C[C@H](C)N2CCOCC2)cc1Cl [SGC-CBP30] | – | – | – | – | – | – | – | – | – | – | – | – | – | – | – | – | – | – | – | – | ΔTm (°C) (EP300 bromodomain; DSF thermal shift vs DMSO, EP300 bromodomain, Fig 2B): 7.9 °C; ΔTm (°C) (BRD4-BD1 (BRD4-1); DSF thermal shift vs DMSO, BRD4-BD1, Fig 2B): 0 °C
COC1CCC(n2c(C3CCCC(=O)N3c3cccc(C(C)(C)C)c3)nc3cc(-c4c(C)noc4C)ccc32)CC1 (stereo not shown) [Compound 6] | 30 ± 21.6 nM | 15.3 ± 0.2 | – | – | – | 4.8 | 14.3 ± 0.19 | – | 3.2 ± 0.13 | – | 558 ± 335 | – | – | – | – | – | – | – | – | – | –
COC1CCC(n2c(C3CCCC(=O)N3c3ccccc3)nc3cc(-c4c(C)noc4C)ccc32)CC1 (stereo not shown) [iCBP5-5] | – | – | – | – | – | – | – | – | – | – | – | 915.174 | 914.49 | 915.362 | 915.368 | 914.907 | 914.429 | 913.858 | 914.04 | 913.557 | Response (Dose Response Curve) [1, 15]: 913.257; Response (Dose Response Curve) [1, 16]: 911.399; Response (Dose Response Curve) [1, 17]: 910.65; Response (Dose Response Curve) [1, 18]: 909.717; Response (Dose Response Curve) [1, 19]: 910.942; Response (Dose Response Curve) [1, 20]: 910.368; Response (Dose Response Curve) [1, 21]: 911.15; Kd [1, 22]: 44.3 nM; Bound (Fit Results) [1, 23]: 910.375; Unbound (Fit Results) [1, 23]: 914.969
COC1CCC(n2c(C3CCCC(=O)N3c3cccc(C(C)(C)C)c3)nc3cc(-c4c(C)noc4C)ccc32)CC1 (stereo not shown) [iCBP-6] | – | – | 15.3 | 15.3 | 15.3 | – | – | 14.3 | – | 3.2 | – | 893.145 and 893.496 and 892.759 | 891.612 and 893.465 and 892.592 | 892.684 and 894.151 and 892.213 | 892.641 and 893.04 and 893.233 | 892.502 and 892.231 and 892.986 | 891.878 and 891.94 and 891.268 | 891.027 and 892.27 and 891.532 | 892.42 and 891.618 and 892.241 | 890.537 and 890.96 and 891.609 | Kd ([1]; Figure 3C, MST, read-out: MST Kd): 30 nM; Response (Dose Response Curve) [1, 15]: 889.07 and 889.984 and 889.085; Response (Dose Response Curve) [1, 16]: 888.52 and 887.496 and 888.851; Response (Dose Response Curve) [1, 17]: 887.2 and 888.101 and 888.455; Response (Dose Response Curve) [1, 18]: 887.415 and 887.704 and 886.214; Response (Dose Response Curve) [1, 19]: 888.032 and 886.878 and 886.638; Response (Dose Response Curve) [1, 20]: 887.475 and 888.923 and 888.41; Response (Dose Response Curve) [1, 21]: 888.712 and 888.775 and 886.626; Kd [1, 22]: 20 nM and 15.2 nM and 54.7 nM; Bound (Fit Results) [1, 23]: 887.696 and 887.896 and 886.89; Unbound (Fit Results) [1, 23]: 892.536 and 893.196 and 892.626
